This note sets out measurements from patent US9000045B2, “CETP activity inhibitors” (Japan Tobacco Inc., priority 1997, dated 2015).

The experiment deals with T1, CETP (Homo sapiens, UniProt P11597).
T1 sequence (P11597 18-493): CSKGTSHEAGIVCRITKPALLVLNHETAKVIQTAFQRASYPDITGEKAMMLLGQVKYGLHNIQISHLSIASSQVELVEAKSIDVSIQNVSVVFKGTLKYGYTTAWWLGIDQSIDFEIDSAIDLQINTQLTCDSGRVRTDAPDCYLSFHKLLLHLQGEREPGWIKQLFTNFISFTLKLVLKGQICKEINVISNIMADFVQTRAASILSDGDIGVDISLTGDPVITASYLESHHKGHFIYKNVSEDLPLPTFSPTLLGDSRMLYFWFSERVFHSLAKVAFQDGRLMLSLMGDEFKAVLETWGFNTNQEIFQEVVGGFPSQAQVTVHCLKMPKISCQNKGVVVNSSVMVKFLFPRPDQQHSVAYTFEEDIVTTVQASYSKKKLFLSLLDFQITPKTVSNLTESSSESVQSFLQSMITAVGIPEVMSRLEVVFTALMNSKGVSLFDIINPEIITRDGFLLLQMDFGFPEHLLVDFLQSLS
Put plainly: In vitro CETP activity inhibitory effect in whole plasma. The experiment is classed as biochemical. Also noted: Plasma containing [^3H]CE-HDL3 (600,000 dpm/ml) was prepared by adding donor lipoprotein obtained in the above (1) to plasma from healthy subjects; from tissue; host or cells: whole plasma of healthy subjects. The note with it: plasma from healthy subjects containing [3H]CE-HDL3, incubated 4 hours at 37° C.; read-out: CETP activity inhibition in whole plasma IC50. The method, then: The fraction thus obtained was dialyzed against a PBS solution [10 mM Na2HPO4/10 mM NaH2PO4/0.15 M NaCl/1 mM EDTA (pH 7.4)]. Then, tritium-labeled cholesterol (10 nM) (50.3 Ci/mM) was dissolved in 95% ethanol and added gradually to the above HDL3 fraction under stirring. The solution was incubated for 18 hours at 37° C. […] After incubation, KBr was added and specific gravity was adjusted to d=1.21 g/ml. […] A sample solution was prepared using a 1:1 solution of N-methylpyrrolidone and polyethyleneglycol 400 as a solvent. […] Based on the inhibition rate (%) of CETP activity, IC50 value of each sample was calculated.
As to `CC(C)(C)C(=O)Sc1cc(Cl)c(Cl)cc1NC(=O)C1(CC2CC2)CCCCC1` [Example 70], the IC50 (commonly the point on the concentration scale where inhibition reaches its midpoint) came out at 4 µM.
With `CC(C)CCC1(C(=O)Nc2ccccc2SC(=O)CCCCC(=O)O)CCCCC1` [Example 53], the IC50 is 8 µM.
Under `CC(C)(C)C(=O)Sc1cc(Cl)c(Cl)cc1NC(=O)C1(CC2CCCCC2)CCCC1` [Example 66-51] stands 45 µM; under `CC(C)CCC1(C(=O)Nc2ccccc2SC(=O)c2cccnc2)CCCC1` [Example 25-60], 5 µM; under `CC1(C(=O)Nc2ccccc2SC(=O)Cc2ccccc2)CCCCC1` [Example 25-17], 23 µM.
Consider `CC(C)(C)C(=O)Nc1ccccc1SC(=O)Cc1ccccc1` [Example 31], for which the IC50 amounted to 32 µM.
Under `CC(C(=O)Nc1cc(Cl)c(Cl)cc1SC(=O)C(C)(C)C)C1CCCCC1` (stereo not drawn) [Example 68] stands 10 µM.
The value for `CC(C)C(C(=O)Nc1cc(Cl)c(Cl)cc1SC(=O)C(C)(C)C)C1CCCCC1` (stereo not drawn) [Example 66-38] was 26 µM.
The value for `CC(=O)N[C@@H](Cc1ccccc1)C(=O)Sc1ccccc1NC(=O)C1(C)CCCCC1` [Example 25-32] was 20 µM; that for `CC(C)CCC1(C(=O)Nc2ccccc2SC(=O)[C@@H]2CCCN2C(=O)c2ccccc2)CCCCC1` [Example 25-55] was 10 µM; that for `CC1(C(=O)Nc2cc(C(F)(F)F)ccc2SC(=O)Cc2ccccc2)CCCCC1` [Example 25-66] was 35 µM.
Regarding `CC(C)CCC1(C(=O)Nc2ccccc2S)CCCC1` [Example 13], the IC50 worked out at 5 µM.
As for `CC1(C(=O)Nc2ccccc2SC(=O)Cc2cccc(Cl)c2)CCCCC1` [Example 25-22], the IC50 was determined as 27 µM.
The value for `CC(=O)N[C@H](C(=O)Sc1ccccc1NC(=O)C1(C)CCCCC1)c1ccccc1` [Example 25-39] was 22 µM; that for `CC(=O)N[C@@H](Cc1ccc(O)cc1)C(=O)Sc1ccccc1NC(=O)C1(C)CCCCC1` [Example 25-36] was 30 µM; that for `CCCCCC1(C(=O)Nc2cc(Cl)c(Cl)cc2SC(=O)C(C)(C)C)CCCCC1` [Example 69] was 6 µM.
The value for `CC(C)CCC1(C(=O)Nc2cc(Cl)c(Cl)cc2S)CCCCC1` [Example 20] was 16 µM; that for `CC(C)CCCC1(C(=O)Nc2cc(Cl)c(Cl)cc2SC(=O)C(C)(C)C)CCCCC1` [Example 66-43] was 23 µM.
Under `CC1(C(=O)Nc2ccccc2SC(=O)[C@H](N)c2ccccc2)CCCCC1` [Example 25-42] stands 22 µM; under `CC(=O)N[C@@H](C(=O)Sc1ccccc1NC(=O)C1(C)CCCCC1)c1ccccc1` [Example 25-38], 20 µM; under `CC1(C(=O)Nc2ccccc2SC(=O)[C@H](NC(=O)c2ccccc2)c2ccccc2)CCCCC1` [Example 25-40], 23 µM.
For the compound `CC(C)CCC1(C(=O)Nc2ccccc2SC(=O)[C@@H]2CCC(=O)N2)CCCCC1` [Example 25-54], the IC50 was 6 µM.
Regarding `CC(C)(C)C(=O)Sc1cc(Cl)c(Cl)cc1NC(=O)C1(C2CCCCC2)CCCCC1` [Example 66-18], the IC50 amounted to 11 µM.
Regarding `CC(C)CC1(C(=O)Nc2ccccc2S)CCCCC1` [Example 18, N-(2-mercaptophenyl)-1-isobutylcyclohexanecarboxamide], the IC50 stood at 6 µM.
The value for `CCCCC1(C(=O)Nc2cc(Cl)c(Cl)cc2SC(=O)C(C)(C)C)CCCCC1` [Example 66-29] was 7 µM; that for `COC(=O)CCC(=O)Sc1cc(Cl)c(Cl)cc1NC(=O)C1(CCC(C)C)CCCCC1` [Example 25-79] was 6 µM; that for `CC1(C(=O)Nc2ccccc2CC(=O)Sc2ccccc2NC(=O)C2(C)CCCCC2)CCCCC1` [Example 25-19] was 22 µM.
Under `CC(C)CCC1(C(=O)Nc2ccccc2SC(=O)c2ccccc2)CCCCC1` [Example 44] stands 23 µM; under `CCC(=O)Sc1cc(Cl)c(Cl)cc1NC(=O)C1(CCC(C)C)CCCCC1` [Example 25-85], 7 µM; under `Cc1ccc(S)c(NC(=O)C2(C)CCCCC2)c1` [Example 19-2], 33 µM.
The value for `CC1(C(=O)Nc2cc(C(F)(F)F)ccc2SC(=O)Sc2ccc(C(F)(F)F)cc2NC(=O)C2(C)CCCCC2)CCCCC1` [Example 25-96] was 8 µM; that for `CC(C)(C)C(=O)Nc1ccccc1S` [Example 9, N-(2-mercaptophenyl)-2,2-dimethylpropioneamide] was 99 µM.
Turning to `CC(C)(C)C(=O)Sc1cc(Cl)c(Cl)cc1NC(=O)CC1CCCCC1` [Example 66-28], the IC50 worked out at 18 µM.
As to `CC(=O)N[C@@H](C)C(=O)Sc1ccccc1NC(=O)C1(CCC(C)C)CCCCC1` [Example 25-44], the half-inhibitory concentration (IC50) worked out at 9 µM.
Under `CC(C)(C)C(=O)Sc1cc(Cl)c(Cl)cc1NC(=O)C1(C)CCCCC1` [Example 66-9] stands 9 µM.
The value for `CCCCC[C@H]1CC[C@H](C(=O)Nc2cc(Cl)c(Cl)cc2SC(=O)C(C)(C)C)CC1` [Example 66-34] was 22 µM; that for `CC(C)(C)C(=O)Sc1ccccc1NC(=O)C1(C)CCCCC1` [Example 30] was 72 µM; that for `CC(C)(C)C(=O)Nc1ccccc1SSc1ccccc1` [Example 84, phenyl 2-pivaloylaminophenyl disulfide] was 158 µM.
Under `CCCC(CCC)C(=O)Nc1ccccc1SSc1ccccc1NC(=O)C(CCC)CCC` [Example 5] stands 3 µM.
As for `CC(C)CCC1(C(=O)Nc2ccccc2SC(=O)NC(C)C)CCCCC1` [Example 25-98], the IC50 amounted to 8 µM.
Under `CCNC(=O)Sc1ccccc1NC(=O)C1(CCC(C)C)CCCCC1` [Example 25-99] stands 6 µM; under `CCSC(=O)Sc1ccc(C(F)(F)F)cc1NC(=O)C1(C)CCCCC1` [Example 25-92], 19 µM; under `CCC[C@H]1CC[C@H](C(=O)Nc2cc(Cl)c(Cl)cc2SC(=O)C(C)(C)C)CC1` [Example 66-33], 19 µM.
The value for `CC(C)(C)C(=O)Sc1cc(Cl)c(Cl)cc1NC(=O)C1(CC2CCCCC2)CCCCC1` [Example 71] was 4 µM.
In the case of `CC1(C(=O)Nc2cccc(CC(=O)Sc3ccccc3NC(=O)C3(C)CCCCC3)c2)CCCCC1` [Example 25-30], the IC50 is 21 µM.
As to `CC(C)(C)CC1(C(=O)Nc2cc(Cl)c(Cl)cc2SC(=O)C(C)(C)C)CCCCC1` [Example 66-46], the IC50 came to 35 µM.
The value for `CC1(C(=O)Nc2ccccc2SC(=O)Cc2cccs2)CCCCC1` [Example 25-28] was 21 µM; that for `CC(C)(C)C(=O)Nc1ccccc1SC(=O)Cc1ccccc1NC(=O)C1(C)CCCCC1` [Example 25-20] was 48 µM.
For `CCCCC(=O)Nc1ccccc1SSc1ccccc1NC(=O)CCCC` [Example 1-8], the IC50 was 21 µM.
The value for `CC(=O)N[C@@H](CC(C)C)C(=O)Sc1ccccc1NC(=O)C1(C)CCCCC1` [Example 25-35] was 27 µM; that for `CC(=O)Nc1cccc(CC(=O)Sc2ccccc2NC(=O)C2(C)CCCCC2)c1` [Example 25-31] was 21 µM; that for `CC(C)CCC1(C(=O)Nc2ccccc2SC(=O)C2CCCCC2)CCCC1` [Example 25-64] was 20 µM.
As to `CC(C)(C)C(=O)Sc1cc(F)c(F)cc1NC(=O)C1(C)CCCCC1` [Example 25-72], the IC50 stood at 27 µM.
For `CC(C)(C)OC(=O)Nc1ccccc1CC(=O)Sc1ccccc1NC(=O)C1(C)CCCCC1` [Example 25-34], the IC50 was determined as 21 µM.
